Among the test systems are NCI-H23; SNB-75; COLO 205; HT-29; HL-60; SF-295; RXF 393; HCT-15; SK-MEL-28; NCI-H522; HCC 2998; UACC-257; SF-268; HOP-92; Malme-3M; SN12C; OVCAR-8; SR.
Common to all, as to experiment: NCI-60 cell line screen, 48 h

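1) Cells in 96-well plates. 2) Compound, 48 h, 5 concentrations. 3) Linear interpolation between surrounding doses. 4) Unreached endpoint = highest concentration. Abbreviation: GI50, concentration required for 50% inhibition of growth.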 The source made the active and inactive calls. No stated cut-off is given here; in the data, active = GI50 up to about 1.1 µM and inactive = higher.

For the compound `O=c1c2ccccc2c(=O)n2n1CC=CC2`, the GI50 with NCI-H23, in the assay with SNB-75, with COLO 205, with HT-29, in the assay with HL-60 and with SF-295 was > 100 µM (inactive) throughout. The GI50 with RXF 393 was > 100 µM (inactive); with HCT-15 it was greater than 100 µM; in the assay with SK-MEL-28, > 100 µM (inactive); in the assay on NCI-H522, > 100 µM (inactive); in the assay on HCC 2998, > 100 µM (inactive); with UACC-257, > 100 µM (inactive). In addition, the GI50 in the assay with SF-268, in the assay with HOP-92, in the assay with Malme-3M, in the assay with SN12C and in the assay with OVCAR-8 was > 100 µM (inactive) in each case.
With `CCOc1ccc(/N=N/c2c(-c3ccccc3)nn(C(=O)CC(=O)Nc3ccccc3Cl)c2-c2ccccc2)cc1`, the GI50 in the assay on SR is 72.8 µM (inactive); in the assay on NCI-H23, 56.9 µM (inactive); with SNB-75, 21.2 µM (inactive); in the assay on COLO 205, 64.9 µM (inactive); in the assay on HT-29, 33.7 µM (inactive); in the assay on HL-60 it was 25.6 µM (inactive). The GI50 is 68.5 µM (inactive) in the assay on SF-295; 34.2 µM (inactive) in the assay with RXF 393; 27.7 µM (inactive) in the assay on SK-MEL-28; 78 µM (inactive) in the assay on NCI-H522; 41.5 µM (inactive) in the assay on HCC 2998; 80.4 µM (inactive) with UACC-257. In addition, the GI50 is 39 µM (inactive) in the assay with SF-268; 48.8 µM (inactive) in the assay on HOP-92; > 100 µM (inactive) in the assay with Malme-3M; > 100 µM (inactive) with SN12C; 89.7 µM (inactive) in the assay with OVCAR-8.
Take `Clc1cccc(C2SCc3nc4ccccc4n32)c1Cl` (stereo unspecified): the GI50 with NCI-H23 is 17.8 µM (inactive); in the assay with SNB-75, 4.51 µM (inactive); with COLO 205, 19.8 µM (inactive); in the assay on HT-29 it was 13.6 µM (inactive); with HL-60, 5.18 µM (inactive); in the assay with SF-295, 16.5 µM (inactive). The GI50 with RXF 393 is 15.6 µM (inactive); in the assay with HCT-15 it was 17.4 µM; with SK-MEL-28 it was 21.1 µM (inactive); with NCI-H522 it was 16.6 µM (inactive); with UACC-257, 15.2 µM (inactive); in the assay on SF-268 it was 21 µM (inactive). Also, the GI50 with HOP-92 is 15.2 µM (inactive); in the assay on SN12C it was 16.1 µM (inactive); in the assay with OVCAR-8, 19 µM (inactive).
With `O=CC1=CCCN(CCc2c[nH]c3ccccc23)C1`, the GI50 is 11.8 µM (inactive) in the assay on SR; 47.6 µM (inactive) in the assay on NCI-H23; 77.6 µM (inactive) with COLO 205; 56.4 µM (inactive) with HT-29; 11.2 µM (inactive) in the assay with HL-60; 57.3 µM (inactive) in the assay with SF-295. Also, the GI50 in the assay on RXF 393 was 30.5 µM (inactive); in the assay with HCT-15, 21.7 µM; in the assay with SK-MEL-28, 11.9 µM (inactive); with NCI-H522, 69.3 µM (inactive); in the assay with HCC 2998, 71.6 µM (inactive); in the assay on UACC-257, 63.8 µM (inactive). For the same compound, the GI50 in the assay on SF-268 was 68.2 µM (inactive); with HOP-92, 64.9 µM (inactive); in the assay on Malme-3M, 64.7 µM (inactive); in the assay on SN12C, 46.2 µM (inactive); in the assay with OVCAR-8, 48.5 µM (inactive).
Regarding `CC(C)(C)CC(C)(C)c1cc2c(O)c(c1)Cc1cc(C(C)(C)CC(C)(C)C)cc(c1O)Cc1cc(C(C)(C)CC(C)(C)C)cc(c1O)Cc1cc(C(C)(C)CC(C)(C)C)cc(c1O)C2`, the GI50 in the assay with NCI-H23, in the assay with SNB-75, in the assay with COLO 205, in the assay on HT-29, with HL-60 and in the assay on SF-295 was > 100 µM (inactive) throughout. Besides, the GI50 with RXF 393 is > 100 µM (inactive); in the assay with HCT-15 it was greater than 100 µM; in the assay on SK-MEL-28, > 100 µM (inactive); in the assay with NCI-H522, > 100 µM (inactive); in the assay with HCC 2998, > 100 µM (inactive); in the assay on UACC-257 it was > 100 µM (inactive). Moreover, the GI50 with SF-268, in the assay on HOP-92, in the assay with Malme-3M, in the assay on SN12C and in the assay with OVCAR-8 was > 100 µM (inactive) in each case.
Consider `CC(=O)OC1C/C(C)=C/CCC(C)/C=C/C2(C)CCC(C(C)(C)O)C12` (stereo unspecified), for which the GI50 in the assay on SR is 18.6 µM (inactive); with NCI-H23, 42.5 µM (inactive); with SNB-75, 40.7 µM (inactive); in the assay on COLO 205, 39.8 µM (inactive); in the assay with HT-29, 33.4 µM (inactive); in the assay with HL-60 it was 24.2 µM (inactive). The GI50 is 80.7 µM (inactive) with SF-295; 14 µM (inactive) with RXF 393; 43.9 µM in the assay with HCT-15; 72.1 µM (inactive) in the assay on SK-MEL-28; 57.4 µM (inactive) with HCC 2998; 26.1 µM (inactive) in the assay on UACC-257. In addition, the GI50 in the assay with SF-268 is 61.7 µM (inactive); in the assay on HOP-92 it was 18.5 µM (inactive); in the assay on Malme-3M it was 63 µM (inactive); in the assay with SN12C, 32.1 µM (inactive); in the assay on OVCAR-8, 57 µM (inactive).
Consider `C/C=C/COC(=O)CO[N+](=O)[O-]`, for which the GI50 with SR, with NCI-H23, with SNB-75, with COLO 205, in the assay on HT-29 and with HL-60 was > 100 µM (inactive) in each case. For the same compound, the GI50 in the assay with SF-295 is > 100 µM (inactive); in the assay with RXF 393, > 100 µM (inactive); in the assay with HCT-15, greater than 100 µM; in the assay with NCI-H522, > 100 µM (inactive); with HCC 2998 it was > 100 µM (inactive); in the assay with UACC-257, > 100 µM (inactive). In addition, the GI50 in the assay with SF-268, in the assay on HOP-92, in the assay on Malme-3M, in the assay with SN12C and with OVCAR-8 was > 100 µM (inactive) throughout.
On to `COC1(OC)CC2OC1C1N=NN(C(=O)OC(C)(C)C)C21` (stereo unspecified), for which the GI50 in the assay on NCI-H23 is > 100 µM (inactive); with SNB-75, > 100 µM (inactive); in the assay with COLO 205, > 100 µM (inactive); in the assay with HT-29, > 100 µM (inactive); in the assay on HL-60, 24.3 µM (inactive); in the assay with SF-295, > 100 µM (inactive). Further, the GI50 in the assay with RXF 393 is > 100 µM (inactive); with HCT-15, 43.7 µM; in the assay on SK-MEL-28 it was > 100 µM (inactive); in the assay with HCC 2998, > 100 µM (inactive); in the assay on UACC-257, > 100 µM (inactive); in the assay with SF-268, > 100 µM (inactive). Besides, the GI50 in the assay on HOP-92, with Malme-3M and with SN12C was > 100 µM (inactive) each time.
For the compound `CCCCCCC(C)CCCCCCCCCCC(=O)O` (stereo unspecified), the GI50 in the assay with SR, with NCI-H23, with SNB-75, with COLO 205, in the assay on HT-29 and with HL-60 was > 100 µM (inactive) throughout. Moreover, the GI50 in the assay on SF-295, with RXF 393, in the assay with SK-MEL-28, in the assay with NCI-H522, in the assay on UACC-257 and in the assay on SF-268 was > 100 µM (inactive) in each case. The GI50 with HOP-92, with Malme-3M, with SN12C and with OVCAR-8 was > 100 µM (inactive) each time.
On to `CCCCC(/C=N/NC(=N)N)CC.Cc1cc(O)c(C(C)C)cc1S(=O)(=O)O`, for which the GI50 is 21.9 µM (inactive) in the assay on SR; 35 µM (inactive) in the assay on NCI-H23; 54 µM (inactive) in the assay with SNB-75; 18.2 µM (inactive) with COLO 205; 8.85 µM (inactive) in the assay on HL-60; 42.5 µM (inactive) in the assay with SF-295. For the same compound, the GI50 with RXF 393 is 24.9 µM (inactive); with HCT-15, 85.7 µM; in the assay with SK-MEL-28, 40.6 µM (inactive); with NCI-H522, > 100 µM (inactive); in the assay with HCC 2998, 17.5 µM (inactive); with UACC-257, 41.3 µM (inactive). The GI50 with SF-268 is > 100 µM (inactive); in the assay on Malme-3M, 43.9 µM (inactive); in the assay on SN12C, 97.5 µM (inactive); with OVCAR-8, > 100 µM (inactive).
For the compound `O=C1C(=O)N(C(=O)c2ccc(Cl)c(Cl)c2)c2ccccc21`, the GI50 with SR is > 100 µM (inactive); with NCI-H23 it was > 100 µM (inactive); with SNB-75 it was 58.6 µM (inactive); in the assay with COLO 205, > 100 µM (inactive); in the assay on HT-29 it was > 100 µM (inactive); in the assay with HL-60, > 100 µM (inactive). Besides, the GI50 in the assay on SF-295, in the assay with RXF 393, with SK-MEL-28, in the assay with SF-268 and with OVCAR-8 was > 100 µM (inactive) each time.
Regarding `Clc1ccc(C2N3CCCCC3[C@@H]3c4[nH]c5ccccc5c4CCN23)cc1` (stereo partly specified), the GI50 was 42.9 µM (inactive) with NCI-H23; 80.5 µM (inactive) in the assay on SNB-75; 22.5 µM (inactive) in the assay on HT-29; 24.9 µM (inactive) with HL-60; 67.1 µM (inactive) with SF-295; 35.2 µM (inactive) in the assay on RXF 393. Moreover, the GI50 with HCT-15 is 53 µM; in the assay on SK-MEL-28, > 100 µM (inactive); in the assay with HCC 2998 it was 34.9 µM (inactive); with UACC-257 it was 83 µM (inactive); in the assay with SF-268, 57.9 µM (inactive); in the assay on HOP-92 it was > 100 µM (inactive). Also, the values for the GI50 with Malme-3M, in the assay with SN12C and in the assay on OVCAR-8 were 19.7 µM (inactive), 24.1 µM (inactive) and > 100 µM (inactive), respectively.
For the compound `COc1cc(/C=C/c2cccnc2)cc(OC)c1OC`, the GI50 is > 100 µM (inactive) in the assay with NCI-H23; 45.7 µM (inactive) in the assay on SNB-75; > 100 µM (inactive) with COLO 205; > 100 µM (inactive) with HT-29; 98.2 µM (inactive) in the assay on HL-60; > 100 µM (inactive) with SF-295. Further, the GI50 is > 100 µM (inactive) in the assay on RXF 393; greater than 100 µM in the assay with HCT-15; > 100 µM (inactive) in the assay with SK-MEL-28; 53.5 µM (inactive) in the assay on NCI-H522; > 100 µM (inactive) with UACC-257; > 100 µM (inactive) in the assay with SF-268. The GI50 in the assay with HOP-92 was 31.8 µM (inactive); with Malme-3M, > 100 µM (inactive); with SN12C, > 100 µM (inactive); with OVCAR-8, > 100 µM (inactive).

The values above are taken from ChEMBL document CHEMBL1201862, “PubChem BioAssay data set” (2004).
